This is an account of results in ChEMBL document CHEMBL1122700, “Structure-activity, theoretical, and X-ray studies on the intramolecular interactions in a series of novel histamine H2 receptor antagonists” (1984).

One test deals with Canis familiaris. In words: Inhibition of histamine-stimulated gastric acid secretion in dog after intravenous administration. The note with it: Canis lupus familiaris, Stomach. It counts as functional.
The target of test [1] is Histamine H2 receptor (Cavia porcellus) (UniProt P47747). The test is described as follows: Histamine H2 receptor affinity was assessed in vitro by antagonism of dimaprit-stimulated chronotropic response in guinea pig right atrium at 0.1 ug/mL. It counts as functional, tissue-based. The following applies: Cardiac atrium.
Sequence of Histamine H2 receptor (Cavia porcellus) (P47747 whole entry): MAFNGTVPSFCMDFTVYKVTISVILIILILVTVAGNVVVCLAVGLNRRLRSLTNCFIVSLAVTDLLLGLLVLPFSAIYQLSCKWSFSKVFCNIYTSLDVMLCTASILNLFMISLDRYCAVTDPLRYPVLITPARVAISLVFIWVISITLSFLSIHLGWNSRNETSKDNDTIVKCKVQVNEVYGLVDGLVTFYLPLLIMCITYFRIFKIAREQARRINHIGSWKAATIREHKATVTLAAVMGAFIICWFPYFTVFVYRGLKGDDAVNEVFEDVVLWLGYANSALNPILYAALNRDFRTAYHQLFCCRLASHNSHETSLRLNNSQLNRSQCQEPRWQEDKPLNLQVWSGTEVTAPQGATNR
Test [2] has the same target. The test is described as follows: Binding constant towards histamine H2 receptor.

The term ED50 denotes the dose that gives a 50% effect, or the effect in half of the subjects. The molecule `CN(C)Cc1cccc(CSCCNc2n[s+]([O-])nc2N)c1` (stereo not drawn) had an ED50 with Canis familiaris of 0.013 mg/kg. This molecule also displayed a Relative potency in test [1] of 0.51.
In the case of `CN(C)Cc1cccc(CSCCNc2n[s+]([O-])nc2N)n1` (stereo not drawn), in the test with Canis familiaris, the ED50 was determined as 0.17 mg/kg. The molecule further returned a Relative potency in test [1] of 0.84.
With `CN(C)Cc1ccc(CSCCNc2n[s+]([O-])nc2N)[nH]1` (stereo not drawn), the 50% effect level in the test on Canis familiaris (ED50) was put at a dose of 0.17 mg/kg. This molecule also came in with a Relative potency in test [1] of 0.31. Moreover, in test [2], the -Log KB worked out at 6.85.
Consider `CN(C)Cc1ccc(CSCCNc2n[s+]([O-])nc2N)s1` (stereo not drawn), for which the ED50 in the test on Canis familiaris was 0.008 mg/kg.
